Results on 45 compounds are retold here after US8058243B2, “Method for treating a brain cancer with ifenprodil” (HSC Research and Development Limited Partnership, priority 2006, dated 2011).

Where a name gives a salt, the structure may show the parent alone. Read-outs that look alike come from different tables or passages of the source.

The subject of the test is murine neural precursor cells (neurosphere cultures). The test can be described thus: HTS of LOPAC library against secondary neurosphere cultures, MTT proliferation assay at 3 μM, day 7 (z score, P value). It is filed as cell-based, mouse. In general terms: Tetrazolium assays rely on reduction of a dye to a coloured formazan, in cell work by metabolically active cells.
Setting [1] is: LOPAC primary screen, neurosphere MTT proliferation, 3 μM, day 7.
[2] abbreviates: yes/no: significantly inhibited neurosphere proliferation (P<0.01) in primary screen.
The mark [3] stands for this setting: LOPAC library screen at 3 μM, secondary neurosphere cultures, MTT.
Where [4] appears, read: LOPAC library screen, 3 μM, MTT, neurosphere cultures.
The mark [5] stands for this setting: LOPAC library screen, 3 μM, MTT, secondary neurosphere cultures, day 7.
[6] abbreviates: yes/no: significantly inhibited neurosphere proliferation (P<0.01) in the primary screen.
The mark [7] stands for this setting: LOPAC library screen at 3 μM, MTT, secondary neurosphere cultures, screened in singlets.
The mark [8] stands for this setting: yes = significantly inhibited neurosphere proliferation (P<0.01) in the primary screen.

Regarding `CC(Cc1ccc(O)cc1)NCC(O)c1cc(O)cc(O)c1` (centres unmarked) [Fenoterol hydrobromide], the “Z Score” value is −1.841. The compound further had a Z score under setting [1] of −1.841. For the same compound, the Activity result under setting [2] is recorded as “no”.
For `O=C1NCC2(CCN(CCc3ccccc3)CC2)O1` [Fenspiride hydrochloride], the “Z Score” value under setting [3] was −0.5762. Under setting [1], this compound showed a Z score of −0.576. Further, under setting [2], the Activity result was “no”.
As for `CC(C)(C(=O)O)c1ccc(C(O)CCCN2CCC(C(O)(c3ccccc3)c3ccccc3)CC2)cc1` (centres unmarked) [Fexofenadine hydrochloride], the Activity entry is given as “no”. The “Z Score” value under setting [3] was −0.7572. Under setting [1], this compound came in with a Z score of −0.757.
For `COc1cccc2c1[C@@H]1CN(CCCCn3c(=O)[nH]c4c(sc5ncc(-c6ccccc6)nc54)c3=O)C[C@@H]1CO2` [Fiduxosin hydrochloride], the “Z Score” value under setting [4] is on record as 0.2005. This compound displayed a Z score under setting [1] of 0.200. Besides, the Activity entry under setting [2] is reported as “no”.
Regarding `CC(=O)O.O=C(NCC1CCCCN1)c1cc(OCC(F)(F)F)ccc1OCC(F)(F)F` (centres unmarked) [Flecainide acelate], the Activity result was “no”. This compound registered a Z score under setting [1] of −1.498.
As for `O=C(NCC1CCCCN1)c1cc(OCC(F)(F)F)ccc1OCC(F)(F)F` (centres unmarked) [Flecainide acetate], the “Z Score” value under setting [5] is given as −1.498.
As for `CCOC(=O)c1ncn2c1CN(C)C(=O)c1cc(F)ccc1-2` [Flumazenil], the Activity result is “no”. Besides, the “Z Score” value under setting [3] was −0.3664. The compound also had a Z score under setting [1] of −0.366.
Consider `Fc1ccc(C(c2ccc(F)cc2)N2CCN(C/C=C/c3ccccc3)CC2)cc1` [Flunarizine dihydrochloride], for which the “Z Score” value under setting [4] is on record as 0.3954. Under setting [1], this compound yielded a Z score of 0.395. The Activity entry under setting [2] was “no”.
Consider `CNCCC(Oc1ccc(C(F)(F)F)cc1)c1ccccc1` (centres unmarked) [Fluoxetine hydrochloride], for which the Activity entry is reported as “no”. Under setting [5], the “Z Score” value is −1.311. The compound further displayed a Z score under setting [1] of −1.311.
As for `OCCN1CCN(CCCN2c3ccccc3Sc3ccc(C(F)(F)F)cc32)CC1` [Fluphenazine dihydrochloride], under “168 h, 3 µM”, the “Z Score” value was −10.2 and the Z score is on record as −10.197. For the same compound, under setting [6], the Activity entry is “yes”.
As for `CCOC(=O)Nc1ccc(NCc2ccc(F)cc2)nc1N` [Flupirtine maleate], under setting [3], the “Z Score” value is given as −0.484. The Z score under setting [1] is reported as −0.484. In addition, the Activity result under setting [2] is reported as “no”.
On to `O=C1NCN(c2ccccc2)C12CCN(CCCC(c1ccc(F)cc1)c1ccc(F)cc1)CC2` [Fluspirilene], for which the Activity entry was “no”. The “Z Score” value under setting [7] is 1.589. Also, under setting [1], the Z score turned out to be 1.589.
`CC(C)C(=O)Nc1ccc([N+](=O)[O-])c(C(F)(F)F)c1` [Flutamide]: the “Z Score” value under setting [3] is recorded as −0.1133. For the same compound, the Z score under setting [1] was −0.113.
Take `COCCCC/C(=N\OCCN)c1ccc(C(F)(F)F)cc1` [Fluvoxamine maleate]: the Activity entry is “no”. Further, under setting [4], the “Z Score” value is 0.1323. The compound further gave a Z score under setting [1] of 0.132.
`C=C[C@@]1(C)CC(=O)[C@]2(O)[C@@]3(C)[C@@H](O)CCC(C)(C)[C@@H]3[C@H](O)[C@H](OC(C)=O)[C@@]2(C)O1` [Forskolin]: under setting [5], the “Z Score” value was −1.331. Further, the Z score under setting [1] was −1.331.
On to `Cc1nc2c([nH]1)c(=O)n(C)c(=O)n2Cc1ccco1` [Furafylline], for which, under setting [4], the “Z Score” value is reported as 1.025. In addition, the Z score under setting [1] was determined as 1.025. Also, under setting [2], the Activity entry is “no”.
As to `O=C(O)c1cc2cc(Cc3cccnc3)ccc2o1` [Furegrelate sodium], the “Z Score” value under setting [4] is listed as 0.3638. The Z score under setting [1] is 0.364. For the same compound, under setting [2], the Activity entry is given as “no”.
Turning to `NS(=O)(=O)c1cc(C(=O)O)c(NCc2ccco2)cc1Cl` [Furosemide], the Activity result is “no”. Moreover, the “Z Score” value under setting [7] was found to be 1.889. Further, the Z score under setting [1] was found to be 1.889.
Consider `CCCCc1ccc(C(=O)O)nc1` [Fusaric acid], for which the “Z Score” value is on record as −0.1413. Under setting [1], the Z score was −0.141.
Take `CC(=O)O[C@H]1C[C@@]2(C)[C@@H](C[C@@H](O)[C@H]3[C@@]4(C)CC[C@@H](O)[C@@H](C)[C@@H]4CC[C@@]32C)/C1=C(\CCC=C(C)C)C(=O)O` [Fusidic acid sodium]: the “Z Score” value under setting [7] worked out at 2.045. Moreover, the Z score under setting [1] is listed as 2.045. Besides, the Activity result under setting [2] was “no”.
Consider `NCCCC(=O)O` [GABA], for which the “Z Score” value is recorded as −0.4389. Also, the Z score (primary LOPAC screen, 3 μM, MTT, neurosphere proliferation) is on record as −0.439. Moreover, for the setting “yes/no: significantly inhibited neurosphere proliferation in the primary screen”, the Activity entry was “no”.
Take `Fc1ccc(C(OCCN2CCN(CCCc3ccccc3)CC2)c2ccc(F)cc2)cc1` [GBR-12909 dihydrochloride]: the “Z Score” value under setting [5] is on record as −10.9. The same compound came in with a Z score under setting [1] of −10.899.
Turning to `Cl.Cl.c1ccc(CCCN2CCN(CCOC(c3ccccc3)c3ccccc3)CC2)cc1` [GBR-12935 dihydrochloride], the “Z Score” value is on record as −11.27. Besides, the Z score under setting [1] is on record as −11.274. The Activity entry under setting [6] is given as “yes”.
Turning to `COc1ccc(CNC(=O)/C=C/c2ccc3[nH]cc(CCN(C)C)c3c2)cc1` [GR 4661], the “Z Score” value was determined as 0.1015. Under setting [1], this compound returned a Z score of 0.102. Besides, the Activity entry under setting [8] is “no”.
Consider `Cn1cc(C(=O)OCC2CCN(CCNS(C)(=O)=O)CC2)c2ccccc21` [GR 113808], for which the “Z Score” value is reported as 0.992. For the same compound, under setting [1], the Z score is recorded as 0.992. Further, the Activity result under setting [6] was “no”.
For the compound `COc1[nH]c2ccc(F)cc2c1C(=O)OCC1CCN(CCNS(C)(=O)=O)CC1.NS(=O)(=O)O` [GR 125487 sulfamate salt], under setting [3], the “Z Score” value is −0.1942. The compound also displayed a Z score under setting [1] of −0.194. Besides, under setting [2], the Activity entry is listed as “no”.
Take `COc1ccc(NC(=O)c2ccc(-c3ccc(-c4noc(C)n4)cc3C)cc2)cc1N1CCN(C)CC1` [GR 127935 hydrochloride]: under setting [3], the “Z Score” value is on record as −1.081. Further, under setting [1], the Z score is on record as −1.081. For the same compound, the Activity result under setting [6] was “no”.
With `CN(CCOc1ccc(C[C@H](Nc2ccccc2C(=O)c2ccccc2)C(=O)O)cc1)c1ccccn1` [GW1929], the “Z Score” value is given as 0.01508. Moreover, under setting [1], the Z score is reported as 0.015. Moreover, the Activity entry under setting [2] is on record as “no”.
Turning to `CN(C)c1cc2c(Nc3ccc4c(cnn4Cc4ccccc4)c3)ncnc2cn1` [GW2974], the “Z Score” value was −0.5164. Under setting [1], this compound registered a Z score of −0.516. Besides, under setting [2], the Activity entry is listed as “no”.
For `O=C1Nc2ccc(I)cc2/C1=C/c1cc(Br)c(O)c(Br)c1` [GW5074] the same measures were −0.1619, −0.162 and “no”.
For `CC(C)(Sc1ccc(CCN(CCCCC2CCCCC2)C(=O)NC2CCCCC2)cc1)C(=O)O` [GW7647] the same measures were −0.9923, −0.992 and “no”.
Turning to `O=C(Nc1ccccc1)c1cc([N+](=O)[O-])ccc1Cl` [GW9662], the “Z Score” value worked out at 1.475. This compound registered a Z score under setting [1] of 1.475. Under setting [8], the Activity result is given as “no”.
In the case of `CC1=NN=C(c2ccc(N)cc2)c2cc3c(cc2C1)OCO3` [GYKI 52466 hydrochloride], under setting [5], the “Z Score” value is recorded as −1.864. Also, under setting [1], the Z score was −1.864. In addition, the Activity result under setting [8] is listed as “no”.
`CC1Cc2cc3c(cc2C(c2ccc(N)cc2)=NN1)OCO3` (centres unmarked) [GYKI 52895]: the Activity result was “no” and the “Z Score” value was −1.258. This compound yielded a Z score under setting [1] of −1.258.
Turning to `NCC1(CC(=O)O)CCCCC1` [Gabapentin], the “Z Score” value turned out to be 0.8838. Besides, under setting [1], the Z score is 0.884. The Activity entry under setting [2] was “no”.
Regarding `CC[N+](CC)(CC)CCOc1cccc(OCC[N+](CC)(CC)CC)c1OCC[N+](CC)(CC)CC` [Gallamine triethiodide], under setting [3], the “Z Score” value is −0.9156. Further, under setting [1], the Z score is given as −0.916. The Activity result under setting [2] is listed as “no”.
Consider `Nc1nc(O)c2ncn(COC(CO)CO)c2n1` [Ganciclovir], for which, under setting [5], the “Z Score” value is on record as −8.939. The same compound returned a Z score under setting [1] of −8.939. Besides, the Activity entry under setting [6] is “yes”.
As for `O=c1c(-c2ccc(O)cc2)coc2cc(O)cc(O)c12` [Genistein], under setting [3], the “Z Score” value is reported as −0.4689. The same compound yielded a Z score under setting [1] of −0.469. The Activity entry under setting [6] is reported as “no”.
With `COc1ccc(Cl)cc1C(=O)NCCc1ccc(S(=O)(=O)NC(=O)NC2CCCCC2)cc1` [Glibenclamide], the “Z Score” value under setting [3] is listed as −0.36. Under setting [1], the Z score is listed as −0.360. Also, the Activity entry under setting [2] is “no”.
For `Cc1cnc(C(=O)NCCc2ccc(S(=O)(=O)NC(=O)NC3CCCCC3)cc2)cn1` [Glipizide], the Activity entry is reported as “no”. Under setting [3], the “Z Score” value was −0.8295. Further, the Z score under setting [1] is recorded as −0.830.
As for `N=C(N)N/N=C/c1c(Cl)cccc1Cl` [Guanabenz acetate], the “Z Score” value under setting [5] is reported as −1.906. The compound further returned a Z score under setting [1] of −1.906. Further, the Activity entry under setting [2] is given as “no”.
Take `N=C(N)NC(=O)Cc1c(Cl)cccc1Cl` [Guanfacine hydrochloride]: the “Z Score” value under setting [4] was 0.9271.
As for `Br.Br.N=C(N)NCCSSCCNC(=N)N` [Guanidinoethyl disulfide dihydrobromide], for the setting “168 h, 3 µM”, the “Z Score” value is −4.521 and the Z score is given as −4.521. Under setting [8], the Activity entry is “yes”.
On to `Cl.N=C(N)NC(=O)Cc1c(Cl)cccc1Cl` [Guranfacine hydrochloride], for which the Z score under setting [1] is listed as 0.927. Moreover, the Activity entry under setting [2] is “no”.
As for `Cl.O=C(O)C1=CCCNC1` [Guvacine hydrochloride], the “Z Score” value is listed as −1.345. This compound showed a Z score under setting [1] of −1.345. Further, the Activity result under setting [2] was “no”.
